From ChEMBL document CHEMBL4819044, “Discovery of a Hydroxypyridinone APJ Receptor Agonist as a Clinical Candidate” (J Med Chem, 2021)
Converted amounts (≈) assume the structure as drawn.

What was measured:
[1] = Metabolic stability in human liver microsomes assessed as parent compound remaining incubated for 10 mins in presence of NADPH by triple quadrupole mass spectrometry; format: ADME, Microsome; details: read-out: Stabilty
Apelin receptor [2] = target: T1, Apelin receptor (Rattus norvegicus, UniProt Q9JHG3); experiment: Agonist activity at rat APJ receptor expressed in human HEK293 cells assessed as inhibition of forskolin-induced cAMP accumulation incubated for 1 hr by TR-FRET assay; format: functional, cell-based
T1 sequence (Q9JHG3 whole entry): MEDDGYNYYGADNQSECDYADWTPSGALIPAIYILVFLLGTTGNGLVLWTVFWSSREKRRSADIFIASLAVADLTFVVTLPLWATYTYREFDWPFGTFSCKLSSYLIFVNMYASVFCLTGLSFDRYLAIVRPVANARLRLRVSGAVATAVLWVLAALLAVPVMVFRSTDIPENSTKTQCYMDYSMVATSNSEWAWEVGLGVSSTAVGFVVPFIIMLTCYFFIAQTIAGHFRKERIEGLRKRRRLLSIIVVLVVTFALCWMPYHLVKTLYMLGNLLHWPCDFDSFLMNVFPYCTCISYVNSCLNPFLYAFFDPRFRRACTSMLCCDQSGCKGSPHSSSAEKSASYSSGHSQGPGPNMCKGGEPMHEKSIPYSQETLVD

[3] = Metabolic stability in rat liver microsomes assessed as parent compound remaining incubated for 10 mins in presence of NADPH by triple quadrupole mass spectrometry; format: ADME, Microsome; details: read-out: Stabilty
[4] = Solubility of compound in phosphate buffer pH 7.4 using excess solid incubated for 24 hrs under agitation condition by reverse phase LC analysis; format: physicochemical
Apelin receptor [5] = target: T2, Apelin receptor (Homo sapiens, UniProt P35414); experiment: Agonist activity at human APJ receptor expressed in human HEK293 cells assessed as inhibition of forskolin-induced cAMP accumulation incubated for 1 hr by TR-FRET assay; format: functional, cell-based
T2 sequence (P35414 whole entry): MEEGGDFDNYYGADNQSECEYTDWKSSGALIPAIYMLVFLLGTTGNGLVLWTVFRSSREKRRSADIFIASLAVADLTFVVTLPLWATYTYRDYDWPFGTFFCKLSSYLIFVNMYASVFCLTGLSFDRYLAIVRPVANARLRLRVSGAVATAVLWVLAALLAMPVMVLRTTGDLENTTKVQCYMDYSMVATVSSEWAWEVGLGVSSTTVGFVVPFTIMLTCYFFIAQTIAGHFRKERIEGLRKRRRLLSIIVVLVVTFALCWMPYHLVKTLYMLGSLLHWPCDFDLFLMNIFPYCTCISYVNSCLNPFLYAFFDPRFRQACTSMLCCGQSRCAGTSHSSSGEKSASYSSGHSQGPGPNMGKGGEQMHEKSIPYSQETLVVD

in vivo [6] = details: cynomolgus monkey, po, 3 mg/kg
Description: Cmax in cynomolgus monkey at 3 mg/kg, po measured measured up to 48 hrs by LC/MS/MS analysis

cells [7] = details: Macaca mulatta, HEK293, 1 h
[8] = Glutathione reactivity of the compound assessed as GSH-adduct formation; format: physicochemical
in vivo [9] = details: Sprague-Dawley, rat, po, 3 mg/kg
Description: AUC (0 to infinity) in Sprague-Dawley rat at 3 mg/kg, po measured up to 48 hrs by LC/MS/MS analysis

Rattus norvegicus [10] = experiment: Hemodynamic activity in Sprague-Dawley rat model of acute pressure-volume loop assessed as increase in cardiac output at 10 ug/kg/min administered as iv infusion measured at 5 mins relative to control; format: functional; details: dose 10 µg/kg/min
Rattus norvegicus [11] = experiment: Hemodynamic activity in Sprague-Dawley rat model of acute pressure-volume loop assessed as peripheral vasodilation by measuring free plasma drug concentration at 10 ug/kg/min administered as iv infusion measured at 5 mins; format: functional; details: dose 10 µg/kg/min
in vivo [12] = details: cynomolgus monkey, po, 3 mg/kg; remark: listed apart in the source
Description: AUC (0 to infinity) in cynomolgus monkey at 3 mg/kg, po measured measured up to 72 hrs by LC/MS/MS analysis

[13] = Oral bioavailability in Sprague-Dawley rat at 3 mg/kg measured measured up to 48 hrs by LC/MS/MS analysis; format: ADME, organism-based; details: in vivo
[14] = Stability in rat liver microsomes assessed as parent compound remaining at 30 uM incubated for 45 mins; format: ADME, Microsome; details: read-out: Stabilty
in vivo [15] = details: Sprague-Dawley, rat, po, 3 mg/kg; remark: listed apart in the source
Description: Cmax in Sprague-Dawley rat at 3 mg/kg, po measured up to 48 hrs by LC/MS/MS analysis

[16] = Stability in monkey liver microsomes assessed as parent compound remaining at 30 uM incubated for 45 mins; format: ADME, Macaca mulatta, Microsome; details: rhesus monkey, read-out: Stabilty
[17] = Renal clearance in Sprague-Dawley rat at 3 mg/kg, po measured up to 48 hrs by LC/MS/MS analysis; format: ADME, organism-based; details: in vivo
[18] = Urinary excretion in cynomolgus monkey at 3 mg/kg, po measured measured up to 72 hrs by LC/MS/MS analysis; details: in vivo
[19] = Half life in cynomolgus monkey at 3 mg/kg, po measured measured up to 72 hrs by LC/MS/MS analysis; details: in vivo
Apelin receptor [20] = target: T2, Apelin receptor; experiment: Displacement of [3H]Apelin-13 from human APJ receptor stably expressed in human HEK293 cell membrane incubated for 120 mins by TopCount scintillation plate reader analysis; format: cell membranes
[21] = Oral bioavailability in cynomolgus monkey at 3 mg/kg measured measured up to 72 hrs by LC/MS/MS analysis; format: ADME, organism-based, Macaca fascicularis; details: in vivo
[22] = Half life in Sprague-Dawley rat at 3 mg/kg, po measured up to 48 hrs by LC/MS/MS analysis; details: in vivo
[23] = Stability in human liver microsomes assessed as parent compound remaining at 30 uM incubated for 45 mins; format: ADME, Microsome; details: read-out: Stabilty
cells [24] = details: Canis lupus familiaris, HEK293, 1 h

Structure (SMILES) | remaining at 10 min [1] [%] | EC50 (Apelin receptor [2]) [nM] | remaining at 10 min [3] [%] | solubility thermodynamic at 24 h [4] [µg/mL] | EC50 (Apelin receptor [5]) [nM] | further results
COc1cccc(OC)c1-c1c(C2CC2)[nH]c(=O)c(-c2nnc(Cc3ccc(Cl)cc3)o2)c1O | 88 | 15 | 51 | 12 (≈ 25 µM) | 11 | –
CCCCc1nc(O)c(-c2nnc(Cc3cccc(Cl)c3)o2)c(O)c1-c1c(OC)cccc1OC | 88 | 7.3 | 38 | – | 2.6 | –
CCCCc1nc(O)c(-c2nnc(Cc3ccccc3Cl)o2)c(O)c1-c1c(OC)cccc1OC | 82 | 18 | 24 | – | 8.6 | –
CCOCc1nc(O)c(-c2nnc(Cc3ccc(Cl)cn3)o2)c(O)c1-c1c(OC)cccc1OC [BMS-986224] | 91 | 0.024 | 92 | 220 (≈ 441 µM) | 0.023 | Cmax at 48 h (in vivo [6]): 1.5 µM; EC50 (cells [7]): 0.08 nM; Drug metabolism [8]: Not Active; AUC(0-inf) at 48 h (in vivo [9]): 34 µM·h; Activity (Rattus norvegicus [10]): 12%; Cp(f) (Rattus norvegicus [11]): 18 nM; AUC(0-inf) at 72 h (in vivo [12]): 15.3 µM·h; bioavailability [13]: 77%; remaining at 0.75 h, 30 µM [14]: > 95%; Cmax at 48 h (in vivo [15]): 5.6 µM; remaining at 0.75 h, 30 µM [16]: > 95%; dose excreted at 48 h [17]: 4%; dose excreted in urine [18]: 12%; half-life at 72 h [19]: 3.6 h; Ki (Apelin receptor [20]): 0.074 nM; bioavailability [21]: 56%; half-life at 48 h [22]: 2.5 h; remaining at 0.75 h, 30 µM [23]: > 95%; EC50 (cells [24]): 0.03 nM
CCCCc1[nH]c(=O)c(-c2nnc(-c3ccc(Cl)cc3)o2)c(O)c1-c1c(OC)cccc1OC | 99 | 450 | 36 | – | – | –
CCCCc1[nH]c(=O)c(C(=O)OCC)c(O)c1-c1c(OC)cccc1OC | 89 | 980 | 24 | – | – | –
CCCCc1nc(O)c(-c2nnc(Cc3ccc(Cl)cc3)o2)c(O)c1-c1c(OC)cccc1OC | 66 | 1.2 | 22 | < 1 | 0.4 | –

More lines, in order of falling EC50 (Apelin receptor [2]), values ahead:

remaining at 10 min [1] [%] | EC50 (Apelin receptor [2]) [nM] | remaining at 10 min [3] [%] | solubility thermodynamic at 24 h [4] [µg/mL] | EC50 (Apelin receptor [5]) [nM] | Structure (SMILES) | further results
36 | 430 | 15 | – | – | CCCCc1[nH]c(=O)c(-c2n[nH]c(Cc3ccccc3)n2)c(O)c1-c1c(OC)cccc1OC | –
69 | 120 | 54 | – | – | CCCCc1[nH]c(=O)c(-c2nc(Cc3ccccc3)no2)c(O)c1-c1c(OC)cccc1OC | –
87 | 31 | 53 | – | – | CCCCc1[nH]c(=O)c(-c2nnc(Cc3ccccc3)o2)c(O)c1-c1c(OC)cccc1OC | –
86 | 1.4 | 73 | 73 (≈ 147 µM) | – | COCCc1[nH]c(=O)c(-c2nnc(Cc3ccc(Cl)cc3)o2)c(O)c1-c1c(OC)cccc1OC | –
96 | 0.58 | 76 | 110 (≈ 220 µM) | 0.17 | CCOCc1[nH]c(=O)c(-c2nnc(Cc3ccc(Cl)nc3)o2)c(O)c1-c1c(OC)cccc1OC | –
80 | 0.51 | 66 | 4 (≈ 7.87 µM) | 0.24 | COc1cccc(OC)c1-c1c(C2CCCC2)[nH]c(=O)c(-c2nnc(Cc3ccc(Cl)cc3)o2)c1O | –
94 | 0.23 | 74 | 26 (≈ 52.2 µM) | 0.12 | CCOCc1nc(O)c(-c2nnc(Cc3ccc(Cl)cc3)o2)c(O)c1-c1c(OC)cccc1OC | –
